From PMC10840383, “Clinical features, functional consequences, and rescue pharmacology of missense GRID1 and GRID2 human variants” (Human Molecular Genetics, 2023)

Target: T1, GluD2-A654T-R710W (Rattus norvegicus, UniProt Q63226, A654T/R710W)
T1 construct: expressed in transfected cells; host or cells: Xenopus laevis oocytes injected with cRNA
T1 sequence (Q63226 24-1007 A654T/R710W): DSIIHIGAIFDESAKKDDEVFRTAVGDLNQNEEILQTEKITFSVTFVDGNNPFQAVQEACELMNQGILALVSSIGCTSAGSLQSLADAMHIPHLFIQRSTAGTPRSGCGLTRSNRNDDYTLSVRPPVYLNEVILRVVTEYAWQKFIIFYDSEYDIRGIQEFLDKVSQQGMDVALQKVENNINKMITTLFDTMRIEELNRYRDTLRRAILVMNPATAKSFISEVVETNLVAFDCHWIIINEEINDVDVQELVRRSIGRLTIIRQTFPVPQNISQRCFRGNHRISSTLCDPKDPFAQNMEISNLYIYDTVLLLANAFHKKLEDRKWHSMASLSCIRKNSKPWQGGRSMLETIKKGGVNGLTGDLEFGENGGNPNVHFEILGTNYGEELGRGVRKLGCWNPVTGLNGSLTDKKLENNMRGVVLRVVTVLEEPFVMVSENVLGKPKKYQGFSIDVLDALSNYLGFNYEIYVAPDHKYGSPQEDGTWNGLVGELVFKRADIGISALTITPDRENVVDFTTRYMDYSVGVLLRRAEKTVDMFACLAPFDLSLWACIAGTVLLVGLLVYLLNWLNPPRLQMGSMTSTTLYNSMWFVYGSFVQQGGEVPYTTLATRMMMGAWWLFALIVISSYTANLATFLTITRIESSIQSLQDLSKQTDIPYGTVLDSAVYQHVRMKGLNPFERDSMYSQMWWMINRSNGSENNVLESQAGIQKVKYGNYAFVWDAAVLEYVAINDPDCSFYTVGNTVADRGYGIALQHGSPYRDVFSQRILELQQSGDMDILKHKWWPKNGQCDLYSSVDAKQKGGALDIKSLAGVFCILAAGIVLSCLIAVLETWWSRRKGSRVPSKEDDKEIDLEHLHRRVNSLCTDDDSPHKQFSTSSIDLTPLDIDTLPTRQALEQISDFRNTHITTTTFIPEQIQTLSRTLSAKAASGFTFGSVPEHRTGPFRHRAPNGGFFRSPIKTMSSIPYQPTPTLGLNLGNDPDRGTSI
Test: TEVC of constitutive current, Xenopus oocytes expressing GluD2-A654T-R710W
Assay type: cell-based
Text: Human GluD1 (GRID1) and rat GluD2 (Grid2) cDNAs were introduced into the pGEM-HE and pCI-neo vectors. GRID1 (NM_017551.3) gene fragments were synthesized by Integrated DNA Technologies and cloned into empty vectors using InFusion cloning (Clontech). […] However, rat and human GluD2-encoding cDNA are identical in the M3 domain in which many of the variants we studied reside (see Supplementary Fig. S1). The full open reading frame for both constructs were verified by Sanger sequencing (Eurofins) and the full plasmid sequence was verified by whole plasmid sequencing (plasmidsaurus). Variant cDNA changes identified in patients were introduced into the cloned human GRID1 (NM_017551.3) in pGEM-HE and cloned rat Grid2 cDNA sequence (NM_024379.1) in pGEM-HE vector using Quikchange Lightning (Agilent) protocol according to the manufacturer’s instructions. Vectors were linearized and cRNA was synthesized using T7 RNA mMESSAGE kit (Invitrogen).
Xenopus laevis oocytes were prepared from ovaries purchased from Xenopus 1 (Dexter, MI) as previously described, [68] and incubated at 16°C in culture Barth’s solution (in mM) 88 NaCl, 2.4 NaHCO3, 1 KCl, 0.33 Ca(NO3)2, 0.41 CaCl2, 0.82 MgSO4, 10 HEPES, pH 7.4 with NaOH, supplemented with 1 U/ml penicillin and 1 μg/ml streptomycin. Oocytes were injected with approximately 5–40 ng RNA per oocyte and then incubated at 16–19°C for 1–3 days in culture Barth’s solution. […] Two-electrode voltage clamp (TEVC) recordings were performed as previously described. Unless otherwise specified, extracellular solution contained (in mM) 90 NaCl, 3 KCl, 0.5 BaCl2, 0.01 EDTA, 10 HEPES, and was brought to pH 7.4 with NaOH. The oocytes were placed in a dual track recording chamber and gravity perfused with solution exchange controlled via a computer-driven 8-valve positioner (Digital MVP Valve). […] Recording electrodes were filled with 0.3 M KCl, and currents were recorded with membrane voltage held at −40 mV. To establish constitutive activity of recombinant receptors when compared to wild type receptors, we used the oocyte recording solution described above, but with 90 mM N-methyl-D-glucamine (NMDG) chloride replacing 90 mM NaCl. […] For Ca^2+ concentration-response curves, choline chloride was used to maintain equimolar concentrations of Cl^− ions in the extracellular solution across the changing concentrations of calcium chloride. All compounds used in this study for concentration-response oocyte recordings were dissolved in deionized water as 50–100 mM stock solutions. In some rescue pharmacology experiments, we substituted 1 mM CaCl2 for 0.5 mM BaCl2 to evaluate Ca^2+-dependent control of receptor responses.

Row | Effect on constitutive current, in words (compared to GluD2-A654T controls) | Ca2+ % Max (NMDG+ − Na+) Mean ± SEM (normalized to NMDG+ − Na+ difference current) | EC50 (potentiation of constitutive current, read-out: Ca2+ EC50 [95% CI]) [µM] | Ca2+ EC50 A654T/EC50 variant (ratio) | D-serine % Max (NMDG+ − Na+) Mean ± SEM (percent of constitutive leak current (NMDG+/Na+ difference current)) | Structure (SMILES)
1 | increased Ca^2+ potency | 245 ± 15 (9) % | 80 | 1.88 |  | [Ca+2] [Ca^2+]
2 |  |  |  |  | 42 ± 3.5 (14) % | N[C@H](CO)C(=O)O [D-serine]
